# Measured values reported in PMC12040169 (PLOS Biology, 2025).
# Assay: in vitro
# Conditions: human, hela cells, % viability
row,SMILES,"viability at 28.5 h, 10 µM [%]"
1,COc1ccc(-c2cnc(N)c(NCC(C)C)n2)c(OC)c1OC [CBK063855],95.4
2,CC(=O)C(/N=N\c1ccc(S(=O)(=O)Nc2nccs2)cc1)C(=O)Nc1ccc(Cl)cc1 (stereo not drawn) [CBK015826],86.8
3,CCNC(=O)Nc1cc2ccccc2c(-c2ccc(F)cc2OC)n1 [CBK085731],62.9
4,COc1ccc(S(=O)(=O)NC(C)C(=O)NCc2ccccn2)cc1Cl (stereo not drawn) [CBK269275],101
5,COc1ccc(-c2cc(C(=O)NCCS(C)(=O)=O)cnc2-c2ccc(Cl)cc2)cc1 [CBK037620],111
6,O=C(NCc1cccs1)C1CCCN1c1nc(O)cc(C(F)(F)F)n1 (stereo not drawn) [CBK004299],91.3
7,O=C(CSc1nnc2c(n1)[nH]c1ccccc12)NCCOc1ccccc1 [CBK268358],101
8,O=C(NCCn1nc(-c2cccs2)ccc1=O)C1CCCCC1 [CBK283837],90.7
9,NC(=O)c1cc2c(OCCCN3CCN(C(c4ccccc4)c4ccccc4)CC3)cccc2[nH]1 [CBK016544],96
10,O=C(COc1ccc(Cl)cc1Cl)Nc1cccc(NC(=O)c2ccccc2Cl)c1 [CBK264726],105
11,CC(=O)N1CC[C@H]2NC(=O)CNC(=O)C3(CCCC[C@H]2C1)CCN(C(=O)c1n[nH]c2c1CCC2)CC3 [CBK292012],102
12,COc1ccccc1CN1CCC2(CCCNC2=O)CC1 [CBK284823],85.2
13,O=C(NCCN1CCOCC1)c1cc(-c2ccc(F)cc2)nc2ccc(Br)cc12 [CBK294450],89.9
14,COCCNc1nc(-c2cc(C(C)C)ccc2OC)ccc1C(=O)Nc1cccc(OC)c1 [CBK105904],96.9
15,CN(C(=O)C1CCN(Cc2cccc(C(F)(F)F)c2)CC1)C(c1ccc(F)cc1)c1ccccn1 (stereo not drawn) [CBK148409],95.7
16,O=C(CSc1nnc(-c2ccco2)n1Cc1ccco1)c1ccc(-c2ccccc2)cc1 [CBK267555],91.1
17,O=C(Nc1cccc(N2CCNCC2)c1)c1cnccn1 [CBK029470T],90.3
18,O=C(c1ccccc1)N1C[C@@H]2CCCCN(Cc3cccnc3)[C@@H]2C1 [CBK285512],98.7
19,Cc1ccc(C(=O)N2CCC(Cc3ccccc3-c3ccccc3)(C(=O)N(C)C)CC2)s1 [CBK285677],107
20,CCc1nccn1CCCNC(=O)Nc1cc(-c2cccnc2)nn1C [CBK306657],88.3
21,CN1C(c2ccccc2)=NO[C@]1(C)c1ccccc1 [CBK027170],90
22,N#Cc1ccc(NCc2ccccc2CN2CCCC2CO)cn1 (stereo not drawn) [CBK304077],97.9

row,SMILES,"viability at 28.5 h, 10 µM [%]"
1,O=C1C(=CNCCN2CCOCC2)C(=O)c2ccccc21 [CBK263008],109
2,O=C(c1ccccc1-c1ccccc1)N1CCn2cnnc2C1 [CBK283789],85.2
3,O=C(Nc1nc(-c2cccnc2)cs1)c1ccccc1 [CBK287569],91.3
4,C[C@@H]1C(=O)O[C@H]2[C@H]1CC[C@@]1(C)Cc3sc(NC(=O)CCC(=O)O)nc3[C@@H](C)[C@H]21 [CBK289429],98.7
5,NC1=NC(=O)N([C@H]2C[C@@H](O)[C@@H](CO)O2)CN1 [CBK201248],108
6,COc1cc(/C=C(/C#N)c2ccc(C(=O)O)cc2)ccc1OCc1cccc([N+](=O)[O-])c1 [CBK269057],108
7,O=[N+]([O-])c1cc([N+](=O)[O-])c(Nc2ccncc2)c([N+](=O)[O-])c1Nc1ccncc1 [CBK278276],96.1
8,CCC(CC(=O)NC1CCCOC1)c1c[nH]c2ccccc12 (stereo not drawn) [CBK282521],119
9,Cc1ccc2[nH]c([C@H]3CCN(C(=O)NC(C)C)C3)nc2c1 [CBK289375],90.8
10,O=C(NC(=S)Nc1cccc2ncccc12)c1ccc(N2CCOCC2)c([N+](=O)[O-])c1 [CBK267608],87.8
11,Cc1ccc(-c2cc(C(=O)Nc3cccnc3)[nH]n2)c(O)c1C [CBK288158],93.3
12,CS(=O)(=O)N1CC2(CCN(Cc3cccc(C(F)(F)F)c3)CC2)c2ccccc21 [CBK126670],96.8
13,Cc1cc2[nH]cc(C(=O)N3CCCC3c3ccco3)c(=O)n2n1 (stereo not drawn) [CBK307390],82.9
14,CN1CC[C@H](c2ccccc2)[C@@H]2[C@H]1CCCCN2C(=O)c1ccc(=O)oc1 [CBK285527],93.2
15,CSCc1nc(CS(=O)(=O)Cc2cccc(C(F)(F)F)c2)no1 [CBK023617],87.8
16,Nc1ncc(-c2cccc3cccnc23)nc1NCc1ccncc1 [CBK063622],87.4
17,Brc1ccc2[nH]c3c(c2c1)CCOC31CCN(CC2CCCCO2)CC1 (stereo not drawn) [CBK040648],87.8
18,CCCC1CN(C)c2ccccc2C1=O (stereo not drawn) [CBK023527],87
19,N#Cc1ccc(Cn2cnc(NC(=O)c3cnccn3)n2)cc1 [CBK305233],88.5
20,COC(=O)CNC(=O)CNS(=O)(=O)c1ccc(C(C)=O)cc1 [CBK044117],89.1
21,CC(C(=O)N1CCCC(COc2ccc(F)cc2)C1)n1ccnc1 (stereo not drawn) [CBK282027],85.8
22,Cc1ccc(S(=O)(=O)N(Cc2c(F)cccc2F)C2CCNCC2)cc1 [CBK163927T],89.9

row,SMILES,"viability at 28.5 h, 10 µM [%]"
1,O=C(CN1CCCCCC1=O)Nc1nc(-c2ccccc2F)cs1 [CBK281408],104
2,CC(C)N1CCC(=NNC(=O)C(O)c2ccccc2)CC1 (stereo not drawn) [CBK019361],110
3,N/C(CS(=O)(=O)Cc1ccc(F)cc1)=N/O [CBK010956],89.2
4,COc1ccc(CNC(=O)N2CCN(c3cc(C(F)(F)F)ccn3)CC2)cc1OC [CBK162344],82.5
5,CCNC(=O)N1CCC[C@@H](O)[C@H](NC(=O)c2ccc(OC)cc2)C1 [CBK289066],88.2
6,CC(C)C(=O)N1CCC(c2nc3ccccn3c2NC(C)(C)C)CC1 [CBK284745],95
7,O=C(O)CCCC(=O)Nc1ccc(O)cc1 [CBK263567],90.9
8,O=C(O)c1ccc(CNCCc2ccccc2)cc1 [CBK287215],101
9,CCC(C)c1cc([N+](=O)[O-])cc([N+](=O)[O-])c1OC(=O)OC(C)C (stereo not drawn) [CBK260882],99.2
10,COc1ccc(N(Cc2cccnc2)C(=O)c2ccc(-c3ccccc3)[nH]c2=O)cc1 [CBK283089],105
11,COc1ccc(C(=O)N2CCN3C(=O)CCC32C)s1 (stereo not drawn) [CBK282058],98.4
12,CC(C)(C)C(=O)N1CCc2cc(C(O)CN3CCCC3)ccc21 (stereo not drawn) [CBK282923],93
13,O=C(Nc1ccccc1Cl)N1CCCCC1CO (stereo not drawn) [CBK156180],91.9
14,CSCCC(NC(=O)c1ccccc1NC(=O)c1ccc(C)cc1)C(=O)O (stereo not drawn) [CBK296067],94.1
15,O=C(CC1NCCNC1=O)Nc1cccc(Cl)c1 (stereo not drawn) [CBK266454],105
16,CCCCOc1ccc(OC(=O)COCCOCCN2C(=O)c3ccccc3C2=O)cc1 [CBK155584],92.6
17,O=C(O)CCNC(=O)c1ccc(NS(=O)(=O)c2ccc(C3CCCCC3)cc2)cc1 [CBK296991],96.1
18,Oc1ccc2ccccc2c1/C=N/Nc1nnc(-c2ccccc2)c(-c2ccccc2)n1 [CBK262005],91.9
19,Cc1nc(C)n(C2CN(S(=O)(=O)c3ccc4scnc4c3)C2)n1 [CBK305889],95.6
20,O=C(CSc1nnc(-c2cccnc2)n1Cc1ccccc1)Nc1ccc(Br)cc1 [CBK267527],94.5
21,COc1c(O)ccc(/C=N\NC(=O)C2COc3cc4ccccc4cc3O2)c1[N+](=O)[O-] (stereo not drawn) [CBK262836],86.9
22,C=C(C)Cn1c(SCC(=O)O)nnc1-c1ccc([N+](=O)[O-])cc1 [CBK263159],89.8

row,SMILES,"viability at 28.5 h, 10 µM [%]"
1,CCNC(=O)N1CC2(CCN(CCS(=O)(=O)c3ccccc3)CC2)c2ccccc21 [CBK126698],90.9
2,CC(C)[C@H](CO)Nc1nccnc1-c1cccc(O)c1 [CBK037542],96.1
3,Cc1nccn1CC1(O)CCN(CC(C)c2ccccc2)CC1 (stereo not drawn) [CBK284954],107
4,COc1cccc(CN2CCN(C(=O)Cc3cccs3)[C@@H](C)C2)c1 [CBK285487],104
5,O=C(NCC1(c2ccccc2)CCOCC1)c1ccno1 [CBK067408],98.2
6,O=[N+]([O-])c1ccc2c(/C=N/c3ccc(-c4nc5ccccc5s4)cc3)c(O)ccc2c1 [CBK261483],92.3
7,Cc1cc2nc(N3CCN(C(=O)c4ccc(C#N)cc4)CC3)sc2cc1C [CBK287737],98.8
8,COc1cc(S(=O)(=O)NCCCn2ccnc2)ccc1Cl [CBK269186],89.1
9,COc1ccc(OC)c(C(C)NC(=O)C2CCN(Cc3cccc(C(F)(F)F)c3)CC2)c1 (stereo not drawn) [CBK148764],95.7
10,O=c1c(Cl)nc(Cl)c(C2CCCCC2)n1Cc1ccccc1 [CBK012671],87.6
11,Cn1ccnc1C(NC(=O)c1cccnc1)c1ccc(F)c(F)c1 (stereo not drawn) [CBK283807],100
12,Cc1cnc(CNC(=O)c2ccc(-c3ccoc3)nc2)cn1 [CBK156267],109
13,O=C(Oc1c(Cl)cc(Cl)c2cccnc12)c1cc(S(=O)(=O)N2CCCCC2)ccc1Cl [CBK264518],100
14,O=C(O)c1cccc(NS(=O)(=O)c2c(Cl)cc(C(F)(F)F)cc2Cl)c1 [CBK155721],96.3
15,CC(=O)c1c(C)n(O)c2ccc(Cl)cc2c1=O [CBK217746],107
16,COc1ccccc1CN(C)C(=O)CCc1ccc(S(N)(=O)=O)cc1 [CBK304585],86.8
17,Cc1ccnn1CCNC(=O)C(C)Cc1cccs1 (stereo not drawn) [CBK281633],109
18,CCc1cc(-c2n[nH]cc2-c2nc(C)cs2)c(O)cc1OC [CBK287934],103
19,O=C(Nc1ccc(O)cc1)c1cnc(-c2ccc(Cl)cc2)c(-c2cccnc2)c1 [CBK037516],94.7

# Same assay, conditions: human, hela cells, % viability, bulk resorufin, single well
row,SMILES,"viability at 28.5 h, 10 µM [%]"
1,O=C1NC(=O)C(=NNc2ccc(S(=O)(=O)O)cc2)C(=O)N1 [CBK261439],88.7
2,O=C(c1ccco1)N1CCC2(CC1)OCc1cc(Cl)ccc1O2 [CBK061068],94.4
